{"source": "patent US20240239786A1", "about": "“COMPOSITIONS AND METHODS FOR THE TREATMENT AND PREVENTION OF CANCER” (Yale University, priority 2021, published 2024)", "key": {"[1]": {"tested_on": "PEO1 cells", "assay": "Flow cytometric EdU incorporation (DNA synthesis) assay, PEO1", "assay_type": "cell-based", "conditions": "for cell cycle distribution: 30 μM DB4 or 1 μM triapine; for time-dependent inhibition of DNA synthesis (EdU-positive cells): 30 μM DB4 or 1 μM triapine, 3, 6, 24 hr", "description": "Cells were plated for 24 hr and then treated with 50 μM compounds for 72 hr. For a positive control, cells were treated with 1 μM triapine for 72 hr. The percentage of cell survival was determined by the MTS cytotoxicity assay. […] Cells were treated with 50 μM compounds or 1 μM triapine for 24 hr. During the last hour, cells were pulse-labeled with EdU, stained with the Click-iT EdU Alexa Fluor 488 Assay Kit, counterstained with 7-AAD, and subsequently analyzed by flow cytometry. EdU-positive cells were gated to determine the percentage of the S phase cell population. The bivariate plots of Alexa Fluor 488 (EdU-positive) and PE-Cy5 (7-AAD-positive) are shown. […] Cells were treated with 50 μM compounds or 1 μM triapine for 24 hr. During the last hour, cells were pulse-labeled with EdU, stained with the Click-iT EdU Alexa Fluor 488 Assay Kit, counterstained with 7-AAD, and subsequently analyzed by flow cytometry. EdU-positive cells were gated to determine the percentage of the S phase cell population. The percentages of DNA synthesis in cells treated with each of 10 compounds and triapine relative to the DMSO-treated control is calculated and shown. FIG. 2D depicts representative results of dNTP measurement on triapine and DB4 in PEO4 cells. Cells were treated with 1 μM triapine or 50 μM DB4 for 24 hr. Cells were extracted with 65% methanol for determination of each of dNTPs expressed as pmole/10^6 cells. Data are means±SD (N=3). *, p<0.05; **, p<0.01; ***, p<0.001, compared with the DMSO-treated control in each dNTP. […] PEO1 cells were pre-treated with 1 mM dA plus […], 10 mM dC plus 10 mM dT, or all dNs for 1 hr and then treated with various concentrations of DB4 or triapine for 72 hr. The percentage of cell survival was determined by the MTS cytotoxicity assay. Data are means±SD (N=3). *, p<0.05; **, p<0.01; ***, p<0.001, compared with the control in each concentration of DB4 or triapine. FIG. 2F depicts schematic representation of structures and molecular compound names of triapine, DB4, and A4.\nPEO1 cells were treated with 30 μM DB4 or 1 μM triapine for indicated times, pulsed with EdU for 1 hr and subsequently assayed for DNA synthesis inhibition as described in FIG. 2B. The bivariate plots of Alexa Fluor 488 and PE-Cy5 were gated to determine % S phase cells. […] PEO4 cells were treated with 30 μM DB4 or 1 μM triapine for indicated times, pulsed with EdU for 1 hr and subsequently assayed for DNA synthesis inhibition as described in FIG. 2B. The bivariate plots of Alexa Fluor 488 and PE-Cy5 were gated to determine % S phase cells. […] The bivariate plots of Alexa Fluor 488 and PE-Cy5 shown in FIG. 6A and FIG. 6B were gated to determine % cells in G1, S, and G2/M phases. […] PEO4 cells were treated with 30 μM DB4 or 1 μM triapine for various time periods and subjected to western blot analysis for the levels of cyclin A2, p-CDK1/2, p-H1, p-Chk1, and HSC70. The HSC70 protein level was used as a loading control. Cropped gel images of protein bands are presented. Cyclin A2, p-CDK1/2, and p-H1 bands were from re-probing the same blot. p-Chk1 and HSC70 bands were from re-probing the same duplicated blot. […] The CDK2 activity is expressed by the percentage of the p-HI levels relative to that of the 0 hr control is shown. […] Protein was analyzed by western blotting for p-Chk1, p-ATR, p-RPA32, γH2AX, and HSC70. Cropped gel images of protein bands are presented. All protein bands were from re-probing the same blot. DSB end resection is assessed by the level of p-RPA32. […]"}, "[2]": {"tested_on": "T cells", "assay": "PBMC T cell co-culture with PEO4 cells activated by CD3-CD28 beads", "assay_type": "cell-based", "conditions": "PBMCs co-cultured with treated PEO4 cells", "text": "FIG. 23 depicts representative effects of DB4 or triapine on peripheral blood mononuclear cells (PBMCs) containing T cells that were co-cultured with BRCA-mutated PEO1 and BRCA-wild type PEO4 cells and activated by CD3-CD28 beads. PEO1 cells suppressed CD8-positive activated T cells.\nFIG. 24 depicts representative effects of DB4 or triapine on peripheral blood mononuclear cells (PBMCs) containing T cells that were co-cultured with BRCA-mutated PEO1 and BRCA-wild type PEO4 cells and activated by CD3-CD28 beads. PEO1 cells increased PD1 and LAG3-positive exhausted T cells.\nFurther experiments were conducted using PBMCs containing T cells that were co-cultured with PEO1 or PEO4 cells and activated by CD3-CD28 beads (FIG. 23). […] Both DB4 and triapine are RNR inhibitors. As such, although not bound by any particular theory, it was hypothesized that DB4 turned BRCA-wild type EOC into immunogenic “hot” tumors. DB4 promoted an increase in tumor neoantigens and the recruitment of tumor infiltrating lymphocytes (TILs) to tumor stroma, which enabled an effective antitumor response elicited by immune checkpoint inhibitors."}}}
{"smiles": "C=CCn1c(SCc2cccc(Cl)c2)nnc1C1CCN(Cc2nc3ccccc3s2)CC1", "note": "[DB4, 2-[(4-{4-allyl-5-[(3-chlorobenzyl)thio]-4H-1,2,4-triazol-3-yl}-1-piperidinyl)methyl]-1,3-benzothiazole]", "values": [{"measurement": "cell cycle distribution", "setting": "[1]", "result": "expansion of the G2/M population"}, {"measurement": "time-dependent inhibition of DNA synthesis (EdU-positive cells)", "setting": "[1]", "result": "gradual decline in the EdU-positive cell population"}, {"measurement": "inhibition at 50 µM", "setting": "[1]; Homo sapiens, 50 μM, 24 hr", "result": "> 99", "unit": "%"}, {"measurement": "T cell activation and exhaustion in co-culture with drug-treated PEO4 cells", "setting": "[2]", "result": "suppressing T cell activation and enhancing T cell exhaustion"}]}
{"smiles": "NC(=S)NN=Cc1ncccc1N", "note": "[triapine, 3-aminopyridine-2-carboxaldehyde-thiosemicarbazone, reference compound]", "values": [{"measurement": "cell cycle distribution", "setting": "[1]", "result": "expansion of the G2/M population"}, {"measurement": "time-dependent inhibition of DNA synthesis (EdU-positive cells)", "setting": "[1]", "result": "prompt reduction in EdU-positive cells"}, {"measurement": "T cell activation and exhaustion in co-culture with drug-treated PEO4 cells", "setting": "[2]", "result": "suppressing T cell activation and enhancing T cell exhaustion"}]}
